One experiment deals with ddY-mice. Briefly: Lipid Lowering Effect on ddY-Mice. The experiment is classed as in vivo. The settings on record: male ddY-mice, dose 0.32 mg/kg orally in olive oil, plasma TG 2 hours after administration; (TG increase in drug treated group/TG increase in control group)×100. As to the method: Test 2: Lipid Lowering Effect on ddY-Mice
Male ddY-mice were housed in temperature- and humidity-controlled rooms and fed with laboratory chow. The animals were randomized according to their body weight and food was deprived about 16 hours before experiment. Baseline blood sample was collected from the retro orbital venous plexus then the animals were orally dosed with drugs in olive oil (10 ml/kg). For control group, 10 ml/kg of olive oil was loaded orally. Blood samples were drawn at 2 hours after drug administration for the measurement of triglyceride (TG) elevation. Plasma TG was determined by conventional enzyme method (The triglyceride E-test Wako).
Lipid lowering effects were shown in percent of the TG increase in drug treated group, relative to the TG increase in control group.
Lipid lowering effect(%)=(TG increase in drug treated group/TG increase in control group)×100

Another experiment concerns Apo B secretion. Briefly: Measurement of Inhibition of Apo B Secretion. The experiment is classed as cell-based. The settings on record: Homo sapiens; HepG2 cells, 10^−8 M test compound, 15-hour incubation, Apo B in media by ELISA, 0.1% DMSO treated cells as controls. On the procedure:
Test 1: Measurement of Inhibition of Apo B Secretion
HepG2 cells were seeded in Eagles medium containing 10% fetal calf serum (FCS) at a density of 30000 cells/well in 96-well plates and allowed to grow for 3 days before treatment. At this time, the medium was replaced with fresh medium containing 0.1% dimethyl sulfoxide (DMSO) and the indicated concentrations of a test compound. After 15-hour incubation, the amount of Apo B and Apo AI accumulated in the media was determined by ELISA.
The assay was carried out at ambient temperature. A flat bottomed micro ELISA plate (manufactured by Nunc) was coated with an anti Apo B monoclonal antibody solution ([…] in 0.05% carbonate buffer, pH 9.6) by adding the antibody solution at a volume of 100 μl per well. After 1-hour incubation on a plate mixer, the unbound materials were removed by washing the well 3 times with a washing buffer (phosphate buffered saline, pH 7.2 containing 0.1% bovine serum albumin and 0.05% Tween-20). Then 20 μl of […] and 100 μl of a solution of peroxidase coupled anti Apo B antibody were added. After 1-hour incubation on a plate mixer, washing was performed 3 times to remove the unbound materials. A freshly prepared substrate solution (2.5 mg/ml ortho-phenylene diamine and 0.018% H2O2 in 0.11 M Na2HPO4-0.044 M sodium citrate buffer, pH 5.4) at a volume of 200 μl was then added to each well. After 20-minute incubation, the enzyme reaction was terminated by adding 50 μl of 0.5 M sulfuric acid. Absorbance of each well was determined at 490 nm using a microplate reader. Apo B concentration was calculated from a standard curve generated from purified Apo B standard that was run in parallel in the same plate. Inhibition of Apo B secretion by the test compound was calculated taking 0.1% DMSO treated cells as controls.
Measurement of Apo AI was performed similar to that of Apo B, except for diluting the sample 11-fold with a dilution buffer (phosphate buffered saline, pH 7.2 containing 0.5% bovine serum albumin and 0.05% Tween-20).
Apo B secretion inhibitors are identified as compounds that decrease Apo B secretion without affecting the secretion of Apo AI.
A general note: In an ELISA, binding on a coated surface is turned into a signal by an enzyme label.

On to `CN(C)c1cc(Cl)ccc1C(=O)Nc1ccc(NCCc2cccc(N)n2)cc1` [Example 435, N-(4-{[2-(6-Amino-2-pyridinyl)ethyl]amino}phenyl)-4-chloro-2-(dimethylamino)benzamide], for which the “TG increase relative to control (%)” value with ddY-mice is given as 52%. Further, at 0.01 µM the inhibition with Apo B secretion was 85.9%.

For `Cc1ccc(C(=O)Nc2ccc(NCCn3cccn3)cc2)c(N(C)C)c1` [Example 183, 2-(dimethylamino)-4-methyl-N-(4-{[2-(1H-pyrazol-1-yl)ethyl]amino}phenyl)benzamide], the “TG increase relative to control (%)” value in the experiment on ddY-mice is on record as 27%. The same compound returned an inhibition at 0.01 µM in the experiment with Apo B secretion of 81.2%.

For the compound `CC1CCN(c2ncccc2C(=O)Nc2ccc(NCCc3ccccn3)cc2)CC1` [Example 54, 2-(4-Methyl-1-piperidinyl)-N-(4-{[2-(2-pyridinyl)ethyl]amino}phenyl)nicotinamide], the “TG increase relative to control (%)” value with ddY-mice came to 28%. In the experiment on Apo B secretion, this compound had an inhibition at 0.01 µM of 86.3%.

`CCc1ccc(C(=O)Nc2ccc(NCCn3cccn3)cc2)c(N(C)C)c1` [Example 473, 2-(Dimethylamino)-4-ethyl-N-(4-{[2-(1H-pyrazol-1-yl)ethyl]amino}phenyl)benzamide]: 0.01 µM produced 75.7% inhibition in the experiment with Apo B secretion.

On to `Cc1ccc(C(=O)Nc2ccc(NCCc3ccccn3)cc2)c(N(C)C)c1` [Example 42, 2-(Dimethylamino)-4-methyl-N-(4-{[2-(2-pyridinyl)ethyl]amino}phenyl)benzamide], for which the “TG increase relative to control (%)” value in the experiment with ddY-mice was determined as 33%. The same compound displayed an inhibition at 0.01 µM in the experiment with Apo B secretion of 85.8%.

Turning to `Cc1ccc(C(=O)Nc2ccc(NC(=O)Cn3cccn3)cc2)c(N2CCC(C)CC2)n1` [Example 193, 6-methyl-2-(4-methyl-1-piperidinyl)-N-{4-[(1H-pyrazol-1-ylacetyl)amino]phenyl}nicotinamide], in the experiment on Apo B secretion, the inhibition at 0.01 µM came to 71.5%.

As to `Cc1ccc(C(=O)Nc2ccc(NC(=O)C(C)c3ccccn3)cc2)c(N2CCC(C)CC2)n1` (centres unmarked) [Example 415, 6-Methyl-2-(4-methyl-1-piperidinyl)-N-(4-{[2-(2-pyridinyl)propanoyl]amino}phenyl)nicotinamide], in the experiment with Apo B secretion, the inhibition at 0.01 µM amounted to 76.2%.

What is called inhibition is how much of the control response was suppressed. A higher inhibition goes with strong suppression.

The values are drawn from US20040133008A1, “Amide compounds” (FUJISAWA PHARMACEUTICAL CO., LTD., priority 2002, published 2004).
